By Ki is commonly meant the dissociation constant of the complex between target and ligand, obtained from inhibition or displacement.

From US5538997A, “2,4-diamino-3-hydroxycarboxylic acid derivatives” (Sandoz Ltd., priority 1993, dated 1996) come the findings set out here.

For series [1], the target named is T1, recombinant HIV-2-proteinase (Human immunodeficiency virus type 2 subtype A, UniProt P04584).
T1 construct: recombinant HIV-1- and HIV-2-proteinase
Kind of series: Assay of peptide cleavage by HIV-proteinase (HIV-2). In kind it is biochemical. To be noted: substrate H-Lys-Ala-Arg-Val-Leu-Nph-Glu-Ala-Nle-NH2. Here is the method: (§1) 1. Assay of peptide cleavage by HIV-proteinase
(§2) Inhibition of HIV-proteinase is measured as described in the literature: A. Richards et al., J. Biol. Chem. 265, 773-7736 (1990) and L. H. Philip et al., Biochem. Biophys. Res. Comun. 171,439-444 (1990). Briefly the peptide H-Lys-Ala-Arg-Val-Leu-Nph-Glu- Ala-Nle-NH2 (where Nph is p-nitrophenylalanine and Nle is norleucine) is used as substrate for recombinant HIV-1- and HIV-2-proteinase. Cleavage occurs between the Leu and Nph residues. The reaction is followed spectrophotometrically by the decrease in extinction at 300 nm which is observed upon cleavage.

Series [2] has as its target recombinant HIV-1-proteinase (Human immunodeficiency virus type 1 group M subtype B, UniProt P04585). Kind of series: biochemical. Here is the method:
as §1, §2

In series [3] the target is T2, renin (Homo sapiens, UniProt P00797).
T2 sequence (P00797 67-406): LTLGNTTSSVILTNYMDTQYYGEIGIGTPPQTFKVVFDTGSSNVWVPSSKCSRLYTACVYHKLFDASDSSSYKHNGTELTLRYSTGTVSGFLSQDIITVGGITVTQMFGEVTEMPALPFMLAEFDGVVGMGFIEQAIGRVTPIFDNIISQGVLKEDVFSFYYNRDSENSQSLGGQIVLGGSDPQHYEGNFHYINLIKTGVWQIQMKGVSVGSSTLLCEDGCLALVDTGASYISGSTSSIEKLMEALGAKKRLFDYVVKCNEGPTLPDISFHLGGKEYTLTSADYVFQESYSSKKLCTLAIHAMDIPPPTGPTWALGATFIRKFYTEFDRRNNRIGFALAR
Kind of series: Inhibition of renin (specificity). Type of series: biochemical.

A short description of series [4]: Assay of oral bioavailability in mice. The arrangement: species or system Female Balb/c mice. The following applies: mouse, in vivo. The protocol: As is known from the literature, peptide based drugs characteristically show poor oral bioavailability. Since with HIV patients long term medication with proteinase inhibitors is anticipated, it is important that a useful drug be orally bioavailable. This is one of the main obstacles in the development of effective drugs in this peptidic structural class. […] This can be shown e.g. in the following test:
For peroral administration, a solution of the test substance (25 mg/ml) in a suitable solvent such as Cremophor RH40^R /Maisine^R /propylene glycol / ethanol (38/32/15/15) is prepared. Female Balb/c mice are fasted for 24 hours prior to the start, and throughout the experiment water is given ad libitum. At various times following drug administration, blood samples are obtained by sacrificing animals under anaesthesia by cutting the vena jugularis, followed by cervical dislocation. Samples are collected in heparinized tubes (typically 0.4-0.6 ml). For sample analysis solid phase extraction and HPLC are used. Drug concentration in the samples is calculated by least-squares linear regression analysis of the peak area ratio (inhibitor/internal standard) of spiked blood standards versus concentration. From the concentration versus time data, the "Area Under the Curve" (AUC) value is calculated by the trapezoidal rule.

The target of series [5] is cathepsin D (Homo sapiens, UniProt P07339). Kind of series: Inhibition of cathepsin D (specificity). In kind it is biochemical.
Sequence of cathepsin D (P07339 65-412): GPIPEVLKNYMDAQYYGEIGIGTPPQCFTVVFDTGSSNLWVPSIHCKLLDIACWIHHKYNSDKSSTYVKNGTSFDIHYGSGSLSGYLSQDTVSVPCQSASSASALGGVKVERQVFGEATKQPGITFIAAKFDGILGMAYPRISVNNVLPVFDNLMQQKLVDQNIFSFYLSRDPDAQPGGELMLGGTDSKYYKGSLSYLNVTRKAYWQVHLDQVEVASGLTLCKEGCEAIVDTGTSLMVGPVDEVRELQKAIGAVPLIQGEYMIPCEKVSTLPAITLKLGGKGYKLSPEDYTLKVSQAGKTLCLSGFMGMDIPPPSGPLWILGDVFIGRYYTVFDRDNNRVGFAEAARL
The subject of series [6] is HIV-1 (HTLV IIIB)-induced cytopathic effect in MT4-cells. Kind of series: Cellular assay: inhibition of HIV-1-induced cytopathic effect in MT4-cells (MTT). In kind it is cell-based. To be noted: Human immunodeficiency virus 1, read-out: IC50 in the cellular assay (virus-inhibitory concentration). The protocol: Inhibition of the HIV-1 (HTLV IIIB)-induced cytopathic effect is measured in MT4-cells as described in the literature (R. Pauwels et al, J. Virol. Meth. 20 309-321 [1988]). Briefly, an HTLV-1 transformed T4 cell line, MT4, which has been shown previously to be highly permissive to HIV infection, serves as a target cell line. Inhibition of HIV-induced cytopathic effect is used as the end point. The viability of both HIV- and mock-infected cells is assessed spectrophotometrically via the in situ-reduction of 3-(4,5-dimethylthiazol-2-yl)-2,5-diphenyltetrazolium bromide (MTT). The comparison of the effects of various concentrations of the agent on HIV- versus mock-infected cells allows the determination of cytotoxic (TC50) and virus-inhibitory (IC50) concentrations.

T1 sequence (P04584 514-612 limits assumed): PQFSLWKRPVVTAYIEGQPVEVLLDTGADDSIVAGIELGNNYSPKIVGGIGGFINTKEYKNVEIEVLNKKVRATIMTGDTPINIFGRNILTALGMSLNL

Regarding `COc1ccc(CNC(C(=O)NC2c3ccccc3CC2O)C(O)C(Cc2ccccc2)NC(=O)C(NC(=O)OCc2ccccc2)C(C)(C)C)cc1` [Example 2, 4(S)-(Benzyloxycarbonyl-L-tert-leucinoy)amino-3(S)-hydroxy-2(R)-(4-methoxybenzylamino)-5-phenyl-pentanoic acid 1 (S)-amino-2(R)-hydroxyindan-amide], the figures for the Ki in series [1] and in series [2] were 50 nM and 9.5 nM, respectively. In addition, the “inhibition of endogenous proteinase renin” value in series [3] is “does not inhibit”. The oral uptake result in series [4] is on record as “excellent oral uptake”. Further, the “inhibition of endogenous proteinase cathepsin D” value in series [5] is listed as “does not inhibit”. The IC50 in series [6] stood at 250 nM.
